Laboratory results as given in patent EP4603105A1, “PHARMACEUTICAL COMPOSITION CONTAINING CYCLIC COMPOUND HAVING SELECTIVE KRAS INHIBITORY EFFECT AGAINST HRAS AND NRAS” (CHUGAI SEIYAKU KABUSHIKI KAISHA, priority 2022, dated 2024).
Where a SMILES comes first, the peptide text is derived from it. Bridges are numbered along the chain shown (N, C = ends). [ ]: non-standard residue; d: D form. The star is where a group is joined. hPhe(3,5-F2-4-CF3) = N[C@@H](CCc1cc(F)c(C(F)(F)F)c(F)c1)C(=O)O; hPhe(3-Cl-4-CF3) = N[C@@H](CCc1ccc(C(F)(F)F)c(Cl)c1)C(=O)O; NPrPhe(4-CF3) = CCCN[C@@H](Cc1ccc(C(F)(F)F)cc1)C(=O)O; NMeAbu(4,4,4-F3) = CN[C@@H](CC(F)(F)F)C(=O)O; NMeGly(cPent) = CN[C@H](C(=O)O)C1CCCC1; NMeD = CN[C@@H](CC(=O)O)C(=O)O; NMeL = CN[C@@H](CC(C)C)C(=O)O; Morpholide = C1CN(*)CCO1; Ac5c = NC1(C(=O)O)CCCC1; Aze = O=C(O)[C@@H]1CCN1; NPrGly = CCCNCC(=O)O; Sar = CNCC(=O)O

Columns and labels:
[1] = biological target: HRAS wild-type protein (Homo sapiens, UniProt P01112); experiment: Binding to HRAS by surface plasmon resonance (SPR), KD and KD ratio to KRAS
Chain of HRAS wild-type protein (P01112 whole entry): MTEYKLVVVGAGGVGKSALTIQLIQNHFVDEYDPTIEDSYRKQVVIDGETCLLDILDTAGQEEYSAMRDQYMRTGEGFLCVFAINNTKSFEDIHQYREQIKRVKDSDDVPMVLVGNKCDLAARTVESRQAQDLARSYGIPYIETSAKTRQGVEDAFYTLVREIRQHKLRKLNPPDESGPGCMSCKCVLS
Procedure, shortened: (§1)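 Single-cycle kinetics on GDP-loaded biotin-Avi RAS captured to ~100–300 RU; 75 s ascending injections, 100 µL/min, 30°C. HBS pH 7.4 + 10 mM MgCl2/10 µM GDP/4% DMSO. 1:1 fit, KD.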

[2] = test system: human lung cancer strain NCI-H441; type: cell-based
Procedure, shortened: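 Proliferation was scored by […] measured after the reagent was added to cultures kept at 37°C in 5% carbon dioxide.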

[3] = biological target: GDP-bound NRAS wild-type protein (Homo sapiens, UniProt P01111); experiment: Binding to NRAS by surface plasmon resonance (SPR), KD and KD ratio to KRAS
Chain of GDP-bound NRAS wild-type protein (P01111 whole entry): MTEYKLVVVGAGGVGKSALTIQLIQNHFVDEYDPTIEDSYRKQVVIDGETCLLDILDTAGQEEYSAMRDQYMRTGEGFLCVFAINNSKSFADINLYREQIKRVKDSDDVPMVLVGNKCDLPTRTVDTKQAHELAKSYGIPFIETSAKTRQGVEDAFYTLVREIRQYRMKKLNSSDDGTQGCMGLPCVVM
Procedure, shortened: as §1

[4] = ratio of KD for HRAS wild-type protein to KD for KRAS
[5] = ratio of KD for GDP-bound NRAS wild-type protein to KD for KRAS
[6] = ratio of KD value for HRAS wild-type protein to KD value for KRAS (SPR)
[7] = ratio of KD value for GDP-bound NRAS wild-type protein to KD value for KRAS (SPR)

Row | SMILES | IC50 [2] [nM] | HRAS /KRAS [1, 4] | NRAS /KRAS [3, 5] | HRAS /KRAS [1, 6] | NRAS /KRAS [3, 7]
1 | CCC[C@H]1C(=O)N[C@@H]([C@@H](C)CC)C(=O)N(C2CC2)CC(=O)N(C)[C@H]2C/C=C\CCN(C2=O)[C@@H](Cc2ccc(C)cc2)C(=O)N(C)CC(=O)N[C@@H](CCc2cc(F)c3c(c2)OCC3)C(=O)N2C[C@H](OCC)C[C@H]2C(=O)NC2(CC(C)(C)C2)C(=O)N(C)[C@@H](C2CCCC2)C(=O)N(C)[C@H](C(=O)N(C)C)CC(=O)N1C [PP2880] | 127 | A (a compound having 10 or more and less than 20 is denoted as A) | A (a compound having 10 or more and less than 20 is denoted as A) |  | 
2 | CCCN1C(=O)CN(C)C(=O)CN(C)C(=O)[C@H]([C@@H](C)CC)NC(=O)[C@H](CC(C)C)N(C)C(=O)C[C@@H](C(=O)N2CCOCC2)N(C)C(=O)[C@H](CC(F)(F)F)N(C)C(=O)C2(CCCC2)NC(=O)[C@@H]2CCCN2C(=O)[C@H](CCc2cc(F)c(C(F)(F)F)c(F)c2)NC(=O)CN(C)C(=O)[C@@H]1Cc1ccc(C(F)(F)F)cc1 [PP0767] ([NMeL]I[Sar][Sar][NPrPhe(4-CF3)][Sar][hPhe(3,5-F2-4-CF3)]P[Ac5c][NMeAbu(4,4,4-F3)][NMeD]-Morpholide; lactam N-11) | 158 | C (A compound having a KD ratio of 0.1 or more and less than 3 is denoted as C) | B (a compound having 3 or more and less than 10 is denoted as B) |  | 
3 | CCCN1CC(=O)N2CC[C@H]2C(=O)N(CCC)[C@@H](Cc2ccc(C(F)(F)F)cc2)C(=O)N(C)CC(=O)N[C@@H](CCc2ccc(C(F)(F)F)c(Cl)c2)C(=O)N2CCC[C@H]2C(=O)NC2(CCCC2)C(=O)N(C)[C@@H](C2CCCC2)C(=O)N(C)[C@H](C(=O)N2CCOCC2)CC(=O)N(C)[C@@H](CC(C)C)C(=O)N[C@@H]([C@@H](C)CC)C1=O [PP0274] ([NMeL]I[NPrGly][Aze][NPrPhe(4-CF3)][Sar][hPhe(3-Cl-4-CF3)]P[Ac5c][NMeGly(cPent)][NMeD]-Morpholide; lactam N-11) | 9.1 | B (a compound having 3 or more and less than 10 is denoted as B) | C (A compound having a KD ratio of 0.1 or more and less than 3 is denoted as C) |  | 

The next lines start with results.

Row | IC50 [2] [nM] | SMILES | HRAS /KRAS [1, 4] | NRAS /KRAS [3, 5] | HRAS /KRAS [1, 6] | NRAS /KRAS [3, 7]
4 | 4.9 | CCCN(C)C(=O)[C@@H]1CC(=O)N(C)[C@@H](CC(F)(F)F)C(=O)N[C@@H]([C@@H](C)CC)C(=O)N(C)CC(=O)N(C)[C@H]2C/C=C\CCN(C2=O)[C@@H](Cc2ccc(C(F)(F)F)cc2)C(=O)N(C)CC(=O)N[C@@H](CCc2cc(F)c(C(F)(F)F)c(F)c2)C(=O)N2C[C@H](OCC)C[C@H]2C(=O)NC2(CCC2)C(=O)N(C)[C@@H](C2CCCC2)C(=O)N1C [PP1702] |  |  | A (a compound having 10 or more and less than 20 is denoted as A) | A (a compound having 10 or more and less than 20 is denoted as A)
5 | 13.4 | CCC(CC)[C@H]1C(=O)N(C)[C@H](C(=O)N(C)C)CC(=O)N(C)[C@@H](COC)C(=O)N[C@@H]([C@@H](C)CC)C(=O)N(C)CC(=O)N(C)[C@H]2C/C=C\CCN(C2=O)[C@@H](Cc2ccc(C)cc2)C(=O)N(C)CC(=O)N[C@@H](CCc2cc(F)c(C(F)(F)F)c(F)c2)C(=O)N2CC3(CC3)C[C@H]2C(=O)NC2(CC(C)(C)C2)C(=O)N1C [PP2963] | A (a compound having 10 or more and less than 20 is denoted as A) | AA (a compound having 20 or more is denoted as AA) |  | 
6 | 2.5 | CCCOC[C@H]1C(=O)N[C@@H]([C@@H](C)CC)C(=O)N(C)CC(=O)N(C)[C@H]2C/C=C\CCN(C2=O)[C@@H](Cc2ccc(C(F)(F)F)cc2)C(=O)N(C)CC(=O)N[C@@H](CCc2cc(F)c(C(F)(F)F)c(F)c2)C(=O)N2CC(F)(F)C[C@H]2C(=O)NC2(CC(C)(C)C2)C(=O)N(C)[C@@H](C2CCCC2)C(=O)N(C)[C@H](C(=O)N(C)C)CC(=O)N1C [PP1718] |  |  | A (a compound having 10 or more and less than 20 is denoted as A) | AA (a compound having 20 or more is denoted as AA)
